Laboratory results reported in PMC5181585, “UMAMIT14 is an amino acid exporter involved in phloem unloading in Arabidopsis roots” (Journal of Experimental Botany, 2016).

Biological target: T1, UMAMIT18 (Arabidopsis thaliana, UniProt Q9LPF1)
T1 construct: gene At1g44800; cDNA in pDR196-Ws, expressed in yeast 22delta10alpha
T1 sequence (Q9LPF1 1-370): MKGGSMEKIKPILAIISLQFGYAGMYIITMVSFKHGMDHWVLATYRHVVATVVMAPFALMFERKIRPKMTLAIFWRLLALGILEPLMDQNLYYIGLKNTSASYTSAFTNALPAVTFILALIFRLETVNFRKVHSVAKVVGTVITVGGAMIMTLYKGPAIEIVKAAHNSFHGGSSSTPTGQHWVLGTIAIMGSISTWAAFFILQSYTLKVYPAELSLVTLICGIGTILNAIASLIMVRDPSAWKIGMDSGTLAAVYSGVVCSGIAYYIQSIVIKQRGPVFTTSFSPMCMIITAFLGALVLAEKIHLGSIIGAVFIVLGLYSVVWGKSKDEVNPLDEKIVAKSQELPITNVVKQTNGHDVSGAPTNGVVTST
Assay: amino acid secretion into medium by yeast, UPLC
Type: cell-based
Settings: export, 22 h growth in minimal medium, yeast 22delta10alpha

CC(C)[C@H](N)C(=O)O [Val]
amino acid secretion into medium by yeast, UPLC: Gln, Val, and Ile represented a larger proportion of the secreted amino acids for UMAMIT18

NC(=O)CC[C@H](N)C(=O)O [Gln]
amino acid secretion into medium by yeast, UPLC (Gln peak not resolved from Arg): Gln, Val, and Ile represented a larger proportion of the secreted amino acids for UMAMIT18
